Data as given in publication PMC3465710 (Biochemistry, 2011).
Values joined by “and” are separate entries in the source; they are usually repeats but may differ in a detail not shown here. Identical values can stand only once. Like-named read-outs stand apart in the source and are kept apart here.

Target: T1, GLUT1 (Homo sapiens, UniProt P11166)
T1 sequence (P11166 1-492): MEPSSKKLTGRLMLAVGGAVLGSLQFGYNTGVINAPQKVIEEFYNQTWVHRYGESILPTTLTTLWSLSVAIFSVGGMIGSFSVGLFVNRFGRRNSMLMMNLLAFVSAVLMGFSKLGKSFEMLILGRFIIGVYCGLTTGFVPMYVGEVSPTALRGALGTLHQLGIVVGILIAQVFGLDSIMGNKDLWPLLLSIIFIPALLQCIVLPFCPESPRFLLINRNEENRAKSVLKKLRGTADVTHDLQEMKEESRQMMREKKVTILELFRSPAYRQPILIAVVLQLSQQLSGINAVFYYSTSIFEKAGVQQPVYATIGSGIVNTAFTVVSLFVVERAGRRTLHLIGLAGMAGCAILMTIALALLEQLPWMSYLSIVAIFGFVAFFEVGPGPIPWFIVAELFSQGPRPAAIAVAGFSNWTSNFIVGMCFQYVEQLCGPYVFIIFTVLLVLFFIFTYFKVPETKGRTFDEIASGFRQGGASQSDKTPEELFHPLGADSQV
Assay type: binding
Conditions: for β (cooperativity parameter, second inhibitor molecule) / γ (hetero-cooperativity parameter) / Inhibition (type of modulation of CB binding) / Ki: 50 nM [3H]-CB; for β (cooperativity parameter, second inhibitor molecule) / γ (hetero-cooperativity parameter) / Ki: 4°C; for β (cooperativity parameter, second inhibitor molecule) / γ (hetero-cooperativity parameter): eqn 6; for Inhibition (type of modulation of CB binding): competing ligand 0 to 100 μM; for ΔG°: calculated as RT ln(1/KI); for ΔΔG°: change in ΔG° relative to baseline cytochalasin or forskolin; for β*γ: product; for Kd: rounded values; for Ki: eqn 6, iterative free [I]

[1] = read-out: KL (Table 3, taken from Table 1), forskolins
[2] = read-out: Ki (affinity of unoccupied GLUT1 for ligand)
[3] = read-out: KL (Table 2, taken from Table 1), cytochalasins

C=C[C@@]1(C)CC(=O)[C@]2(O)[C@@]3(C)CCCC(C)(C)[C@@H]3[C@H](O)[C@H](OC(C)=O)[C@@]2(C)O1 [1DOFSK, 1-deoxy-forskolin]
β (cooperativity parameter, second inhibitor molecule): 22179 ± 5104 | γ (hetero-cooperativity parameter): 0.438 ± 0.017 | β (cooperativity parameter, second inhibitor molecule) (listed as 1DO-FSK): 22,179 ± 5,104 | β (cooperativity parameter, second inhibitor molecule) (listed as 1DeO-FSK): 22000 | γ (hetero-cooperativity parameter) (listed as 1DeO-FSK): 0.44 | Inhibition (type of modulation of CB binding): 2 | ΔG°: -11.41 kcal/mol | ΔΔG°: -4.46 kcal/mol | β*γ: 9714 | Kd [1]: 1 nM | Ki [2]: 1 ± 0.7 nM

C=C[C@@]1(C)CC(=O)[C@H]2[C@](C)(O1)[C@@H](OC(C)=O)[C@@H](O)[C@H]1C(C)(C)CC[C@H](O)[C@@]12C [9DOFSK, 9-deoxy-forskolin]
β (cooperativity parameter, second inhibitor molecule): 120.3 ± 12.3 | γ (hetero-cooperativity parameter): 0.464 ± 0.016 | β (cooperativity parameter, second inhibitor molecule) (listed as 9DeO-FSK): 120 | γ (hetero-cooperativity parameter) (listed as 9DeO-FSK): 0.46 | Inhibition (type of modulation of CB binding): 2 | ΔG°: -8.07 kcal/mol | ΔΔG°: -1.12 kcal/mol | β*γ: 56 | Kd [1]: 430 nM | Ki [2]: 430 ± 75 nM

C=C[C@@]1(C)CC(=O)[C@]2(O)[C@@]3(C)[C@@H](OC(C)=O)CCC(C)(C)[C@@H]3[C@H](OC(C)=O)[C@H](OC(C)=O)[C@@]2(C)O1 [1,6DiAFSK, 1,60diacetyl-forskolin]
β (cooperativity parameter, second inhibitor molecule): 1480 ± 268 | γ (hetero-cooperativity parameter): 0.489 ± 0.017 | β (cooperativity parameter, second inhibitor molecule) (listed as 1,6DiA-FSK): 1500 | γ (hetero-cooperativity parameter) (listed as 1,6DiA-FSK): 0.49 | Inhibition (type of modulation of CB binding): 2 | ΔΔG°: 0.67 kcal/mol | β*γ: 724 | Kd [1]: 11 nM

C=C1[C@@H](C)[C@H]2[C@H](Cc3ccccc3)NC(=O)[C@]23[C@H](OC(C)=O)/C=C/[C@@](C)(O)C(=O)[C@@H](C)C/C=C/[C@H]3[C@@H]1O [CCD, Cytochalasin D]
β (cooperativity parameter, second inhibitor molecule): 101 ± 61 | γ (hetero-cooperativity parameter): 0.557 ± 0.019 | β (cooperativity parameter, second inhibitor molecule) (listed as CD): 101 | γ (hetero-cooperativity parameter) (listed as CD): 0.56 | Inhibition (type of modulation of CB binding): 3 | Kd (KL (Table 2, taken from Table 1), cytochalasins): 2000 nM | Ki (Ki (affinity of unoccupied GLUT1 for ligand)): 1970 ± 98 nM | ΔG°: -7.23 kcal/mol | ΔΔG°: 1.65 kcal/mol | β*γ: 51

C=C1[C@@H](C)[C@H]2[C@H](Cc3ccccc3)NC(=O)[C@]23OC(=O)/C=C/C(=O)CCC[C@@H](C)C/C=C/[C@H]3[C@@H]1O [CCA, Cytochalasin A]
β (cooperativity parameter, second inhibitor molecule): 1.11 ± 0.17 | γ (hetero-cooperativity parameter): 0.374 ± 0.052 | β (cooperativity parameter, second inhibitor molecule) (listed as CA): 1.11 | γ (hetero-cooperativity parameter) (listed as CA): 0.38 | Inhibition (type of modulation of CB binding): 2 | ΔG°: -7.72 kcal/mol | ΔΔG°: 1.17 kcal/mol | β*γ: 0.42 | Kd [3]: 820 nM | Ki [2]: 815 ± 96 nM

CC[C@@]1(C)CC(=O)[C@@]2(O)[C@]3(C)[C@H](O)CCC(C)(C)[C@H]3[C@@H](O)[C@@H](OC(C)=O)[C@]2(C)O1 [14.15DiHFSK, 14,15-dihydro-forskolin]
β (cooperativity parameter, second inhibitor molecule): 242.7 ± 140 | γ (hetero-cooperativity parameter): 0.571 ± 0.015 | β (cooperativity parameter, second inhibitor molecule) (listed as 14,15DiH-FSK): 243 | γ (hetero-cooperativity parameter) (listed as 14,15DiH-FSK): 0.6 | Inhibition (type of modulation of CB binding): 1 | ΔG°: -9.55 kcal/mol | ΔΔG°: -2.60 kcal/mol | β*γ: 139 | Kd [1]: 30 nM | Ki [2]: 29.1 ± 17 nM

CC(=O)O[C@@H]1/C=C\[C@@](C)(O)C(=O)[C@@H](C)C/C=C\[C@H]2[C@H](O)C(C)=C(C)[C@H]3C(Cc4ccccc4)NC(=O)[C@]132 (stereo partly shown) [CCC, Cytochalasin C]
β (cooperativity parameter, second inhibitor molecule): ∞ | γ (hetero-cooperativity parameter): 0.433 ± 0.003 | γ (hetero-cooperativity parameter) (listed as CC): 0.43 | Inhibition (type of modulation of CB binding): 4 | ΔG°: -7.35 kcal/mol | ΔΔG°: 1.53 kcal/mol | β*γ: ∞ | Kd [3]: 1600 nM | Ki [2]: 1590 ± 431 nM

C=C[C@@]1(C)CC(=O)[C@]2(O)[C@@]3(C)[C@@H](O)CCC(C)(C)[C@@H]3[C@H](O)[C@H](O)[C@@]2(C)O1 [7DeAFSK, 7-deacetyl-forskolin]
β (cooperativity parameter, second inhibitor molecule): ∞ | γ (hetero-cooperativity parameter): 0.450 ± 0.008 | γ (hetero-cooperativity parameter) (listed as 7DeA-FSK): 0.45 ± 0.01 and 0.45 | Inhibition (type of modulation of CB binding): 4 | ΔG°: -11.02 kcal/mol | ΔΔG°: -4.07 kcal/mol | β*γ: ∞ | Kd [1]: 2 nM | Ki [2]: 2 ± 2 nM

C=C1[C@@H](C)[C@H]2[C@H](Cc3ccccc3)NC(=O)[C@]23[C@H](OC(C)=O)/C=C/[C@](C)(O)C[C@@H](C)C/C=C/[C@H]3[C@@H]1O [CCH, Cytochalasin H]
β (cooperativity parameter, second inhibitor molecule): 249 ± 45 | γ (hetero-cooperativity parameter): 0.449 ± 0.019 | β (cooperativity parameter, second inhibitor molecule) (listed as CH): 249 | γ (hetero-cooperativity parameter) (listed as CH): 0.45 | Inhibition (type of modulation of CB binding): 2 | ΔG°: -8.88 kcal/mol | ΔΔG°: 0.00 kcal/mol | β*γ: 110 | Kd [3]: 100 nM | Ki [2]: 98 ± 3 nM

C=C[C@@]1(C)CC(=O)[C@]2(O)[C@@]3(C)[C@@H](O)CCC(C)(C)[C@@H]3[C@H](O)[C@H](OC(=O)CF)[C@@]2(C)O1 [7FAFSK, 7-fluoroacetyl-forskolin]
β (cooperativity parameter, second inhibitor molecule): 45.3 ± 5.0 | γ (hetero-cooperativity parameter): 0.475 ± 0.010 | β (cooperativity parameter, second inhibitor molecule) (listed as 7FA-FSK): 45 | γ (hetero-cooperativity parameter) (listed as 7FA-FSK): 0.48 | Inhibition (type of modulation of CB binding): 2 | ΔG°: -7.86 kcal/mol | ΔΔG°: -0.91 kcal/mol | β*γ: 22 | Kd [1]: 630 nM | Ki [2]: 629 ± 0.644 nM

C=C1[C@@H](C)[C@H]2[C@H](Cc3ccccc3)NC(=O)[C@]23[C@H](O)/C=C/[C@](C)(O)C[C@@H](C)C/C=C/[C@H]3[C@@H]1O [CCJ, Cytochalasin J]
β (cooperativity parameter, second inhibitor molecule): 6399 ± 347 | γ (hetero-cooperativity parameter): 0.635 ± 0.013 | Inhibition (type of modulation of CB binding): 3 | ΔG°: -10.04 kcal/mol | ΔΔG°: -1.16 kcal/mol | β*γ: 4063 | Ki [2]: 12 ± 1 nM

C=C[C@@]1(C)CC(=O)[C@]2(O)[C@@]3(C)[C@@H](O)CCC(C)(C)[C@@H]3[C@H](OC(C)=O)[C@H](O)[C@@]2(C)O1 [6A7DeAFSK, 6-acetyl, 7-deacetyl-forskolin]
Inhibition (type of modulation of CB binding): 5

C=C[C@@]1(C)CC(=O)[C@]2(O)[C@@]3(C)[C@@H](OC(C)=O)CCC(C)(C)[C@@H]3[C@H](O)[C@H](OC(C)=O)[C@@]2(C)O1 [1AFSK, 1-acetyl-forskolin]
β (cooperativity parameter, second inhibitor molecule): 11923 ± 8441 | γ (hetero-cooperativity parameter): 0.440 ± 0.008 | β (cooperativity parameter, second inhibitor molecule) (listed as 1A-FSK): 11923 | γ (hetero-cooperativity parameter) (listed as 1A-FSK): 0.44 | Inhibition (type of modulation of CB binding): 2 | ΔG°: -10.80 kcal/mol | ΔΔG°: -3.85 kcal/mol | β*γ: 5246 | Kd [1]: 3 nM | Ki [2]: 3 ± 2 nM
